Laboratory results from ChEMBL document CHEMBL3875147 (Eur J Med Chem, 2016).
≈ marks a conversion by molar mass, not a printed value.

How the values were obtained:
[1] = Antibacterial activity against Aeromonas hydrophila ATCC 7966 incubated for 18 to 24 hrs by micro-dilution method; format: functional, Aeromonas hydrophila subsp. hydrophila ATCC 7966
Pseudomonas aeruginosa [2] = experiment: Antibacterial activity against clinical isolate of Pseudomonas aeruginosa incubated for 18 to 24 hrs by micro-dilution method; format: functional
[3] = Hemolytic activity in human RBC at 100 uM measured after 1 hr by UV-vis absorbance method relative to control; format: ADME, cell-based, Erythrocyte; conditions: red blood cells (RBC), read-out: Activity
Salmonella typhi = experiment: Antibacterial activity against clinical isolate of Salmonella typhi incubated for 18 to 24 hrs by micro-dilution method; format: functional, Salmonella enterica subsp. enterica serovar Typhi; conditions: Salmonella enterica
Plesiomonas shigelloides = experiment: Antibacterial activity against Plesiomonas shigelloides ATCC 14029 incubated for 18 to 24 hrs by micro-dilution method; format: functional
Enterococcus faecalis = experiment: Antibacterial activity against clinical isolate of Enterococcus faecalis incubated for 18 to 24 hrs by micro-dilution method; format: functional
Pseudomonas aeruginosa [4] = experiment: Antibacterial activity against Pseudomonas aeruginosa ATCC 27853 incubated for 18 to 24 hrs by micro-dilution method; format: functional
[5] = tested on: Staphylococcus epidermidis; experiment: Antibacterial activity against Staphylococcus epidermidis ATCC 35984 incubated for 18 to 24 hrs by micro-dilution method; format: functional; conditions: RP62A
[6] = tested on: Sphingomonas paucimobilis; experiment: Antibacterial activity against Sphingomonas paucimobilis MTCC 6362 incubated for 18 to 24 hrs by micro-dilution method; format: functional
Staphylococcus aureus = experiment: Antibacterial activity against Staphylococcus aureus ATCC 25923 incubated for 18 to 24 hrs by micro-dilution method; format: functional
Escherichia coli = experiment: Antibacterial activity against Escherichia coli ATCC 25922 incubated for 18 to 24 hrs by micro-dilution method; format: functional
Salmonella typhimurium = experiment: Antibacterial activity against clinical isolate of Salmonella typhimurium incubated for 18 to 24 hrs by micro-dilution method; format: functional, Salmonella enterica subsp. enterica serovar Typhimurium; conditions: Salmonella enterica

SMILES	MIC [1] [µM]	MIC (Pseudomonas aeruginosa [2]) [µM]	hemolysis at 1 h, 100 µM [3] [%]	MIC (Salmonella typhi) [µM]	MIC (Plesiomonas shigelloides) [µM]	MIC (Enterococcus faecalis) [µM]	MIC (Pseudomonas aeruginosa [4]) [µM]	MIC [5] [µM]	MIC [6] [µM]	MIC (Staphylococcus aureus) [µM]	MIC (Escherichia coli) [µM]	MIC (Salmonella typhimurium) [µM]
O=C(OCc1cn(-c2ccc(F)cc2F)nn1)c1cn(C2CC2)c2cc(N3CCN(Cc4cn(-c5ccc(F)cc5F)nn4)CC3)c(F)cc2c1=O	69.7 (≈ 50 µg/mL)	17.4 (≈ 12.5 µg/mL)	9.5	4.35 (≈ 3.12 µg/mL)	69.7 (≈ 50 µg/mL)	17.4 (≈ 12.5 µg/mL)	8.71 (≈ 6.25 µg/mL)	8.71 (≈ 6.25 µg/mL)	34.8 (≈ 25 µg/mL)	4.35 (≈ 3.12 µg/mL)	8.71 (≈ 6.25 µg/mL)	34.8 (≈ 25 µg/mL)
Cc1ccc(-n2cc(COC(=O)c3cn(C4CC4)c4cc(N5CCN(Cc6cn(-c7ccc(C)cc7Cl)nn6)CC5)c(F)cc4c3=O)nn2)c(Cl)c1	67.3 (≈ 50 µg/mL)	16.8 (≈ 12.5 µg/mL)	5.85	> 135	33.7 (≈ 25 µg/mL)	33.7 (≈ 25 µg/mL)	16.8 (≈ 12.5 µg/mL)	8.42 (≈ 6.25 µg/mL)	67.3 (≈ 50 µg/mL)	4.21 (≈ 3.13 µg/mL)	67.3 (≈ 50 µg/mL)	67.3 (≈ 50 µg/mL)
CCc1ccc(-n2cc(COC(=O)c3cn(C4CC4)c4cc(N5CCN(Cc6cn(-c7ccc(CC)cc7)nn6)CC5)c(F)cc4c3=O)nn2)cc1	> 142	> 142	6.81	142 (≈ 100 µg/mL)	4.45 (≈ 3.12 µg/mL)	142 (≈ 100 µg/mL)	> 142	71.2 (≈ 50 µg/mL)	> 142	142 (≈ 100 µg/mL)	> 142	8.91 (≈ 6.25 µg/mL)
O=C(OCc1cn(-c2cccc(Cl)c2Cl)nn1)c1cn(C2CC2)c2cc(N3CCN(Cc4cn(-c5cccc(Cl)c5Cl)nn4)CC3)c(F)cc2c1=O	31.9 (≈ 25 µg/mL)	15.9 (≈ 12.5 µg/mL)	6.58	31.9 (≈ 25 µg/mL)	7.98 (≈ 6.25 µg/mL)	15.9 (≈ 12.5 µg/mL)	7.98 (≈ 6.25 µg/mL)	3.99 (≈ 3.13 µg/mL)	15.9 (≈ 12.5 µg/mL)	3.99 (≈ 3.13 µg/mL)	7.98 (≈ 6.25 µg/mL)	15.9 (≈ 12.5 µg/mL)
O=C(OCc1cn(-c2ccc(Br)cc2)nn1)c1cn(C2CC2)c2cc(N3CCN(Cc4cn(-c5ccc(Br)cc5)nn4)CC3)c(F)cc2c1=O	31.1 (≈ 25 µg/mL)	15.6 (≈ 12.5 µg/mL)	1.46	7.78 (≈ 6.25 µg/mL)	3.89 (≈ 3.13 µg/mL)	15.6 (≈ 12.5 µg/mL)	15.6 (≈ 12.5 µg/mL)	3.89 (≈ 3.13 µg/mL)	15.6 (≈ 12.5 µg/mL)	1.94 (≈ 1.56 µg/mL)	7.78 (≈ 6.25 µg/mL)	15.6 (≈ 12.5 µg/mL)
O=C(OCc1cn(-c2ccc(Cl)cc2)nn1)c1cn(C2CC2)c2cc(N3CCN(Cc4cn(-c5ccc(Cl)cc5)nn4)CC3)c(F)cc2c1=O	35 (≈ 25 µg/mL)	8.75 (≈ 6.25 µg/mL)	4.73	–	8.75 (≈ 6.25 µg/mL)	2.19 (≈ 1.56 µg/mL)	4.37 (≈ 3.12 µg/mL)	35 (≈ 25 µg/mL)	35 (≈ 25 µg/mL)	2.19 (≈ 1.56 µg/mL)	4.37 (≈ 3.12 µg/mL)	4.37 (≈ 3.12 µg/mL)
O=C(OCc1cn(-c2ccc(Cl)cc2Cl)nn1)c1cn(C2CC2)c2cc(N3CCN(Cc4cn(-c5ccc(Cl)cc5Cl)nn4)CC3)c(F)cc2c1=O	7.98 (≈ 6.25 µg/mL)	7.98 (≈ 6.25 µg/mL)	18.2	7.98 (≈ 6.25 µg/mL)	7.98 (≈ 6.25 µg/mL)	15.9 (≈ 12.5 µg/mL)	15.9 (≈ 12.5 µg/mL)	3.99 (≈ 3.13 µg/mL)	15.9 (≈ 12.5 µg/mL)	3.99 (≈ 3.13 µg/mL)	> 128	15.9 (≈ 12.5 µg/mL)
CC(=O)c1ccc(-n2cc(COC(=O)c3cn(C4CC4)c4cc(N5CCN(Cc6cn(-c7ccc(C(C)=O)cc7)nn6)CC5)c(F)cc4c3=O)nn2)cc1	8.56 (≈ 6.25 µg/mL)	8.56 (≈ 6.25 µg/mL)	8.05	–	2.14 (≈ 1.56 µg/mL)	4.28 (≈ 3.12 µg/mL)	4.28 (≈ 3.12 µg/mL)	2.14 (≈ 1.56 µg/mL)	17.1 (≈ 12.5 µg/mL)	2.14 (≈ 1.56 µg/mL)	2.14 (≈ 1.56 µg/mL)	8.56 (≈ 6.25 µg/mL)
O=C(OCc1cn(-c2ccc(F)c(Cl)c2)nn1)c1cn(C2CC2)c2cc(N3CCN(Cc4cn(-c5ccc(F)c(Cl)c5)nn4)CC3)c(F)cc2c1=O	33.3 (≈ 25 µg/mL)	16.6 (≈ 12.5 µg/mL)	5.36	–	4.16 (≈ 3.12 µg/mL)	16.6 (≈ 12.5 µg/mL)	16.6 (≈ 12.5 µg/mL)	8.33 (≈ 6.25 µg/mL)	16.6 (≈ 12.5 µg/mL)	8.33 (≈ 6.25 µg/mL)	8.33 (≈ 6.25 µg/mL)	16.6 (≈ 12.5 µg/mL)
O=C(OCc1cn(-c2ccc([N+](=O)[O-])cc2)nn1)c1cn(C2CC2)c2cc(N3CCN(Cc4cn(-c5ccc([N+](=O)[O-])cc5)nn4)CC3)c(F)cc2c1=O	17 (≈ 12.5 µg/mL)	17 (≈ 12.5 µg/mL)	5.61	–	4.25 (≈ 3.13 µg/mL)	8.5 (≈ 6.25 µg/mL)	8.5 (≈ 6.25 µg/mL)	1.06 (≈ 0.78 µg/mL)	17 (≈ 12.5 µg/mL)	4.25 (≈ 3.13 µg/mL)	4.25 (≈ 3.13 µg/mL)	17 (≈ 12.5 µg/mL)
O=C(OCc1cn(-c2ccccc2Cl)nn1)c1cn(C2CC2)c2cc(N3CCN(Cc4cn(-c5ccccc5Cl)nn4)CC3)c(F)cc2c1=O	35 (≈ 25 µg/mL)	35 (≈ 25 µg/mL)	5.85	140 (≈ 100 µg/mL)	2.19 (≈ 1.56 µg/mL)	35 (≈ 25 µg/mL)	8.75 (≈ 6.25 µg/mL)	1.09 (≈ 0.779 µg/mL)	35 (≈ 25 µg/mL)	8.75 (≈ 6.25 µg/mL)	2.19 (≈ 1.56 µg/mL)	17.5 (≈ 12.5 µg/mL)
O=C(OCc1cn(-c2ccc(F)cc2Cl)nn1)c1cn(C2CC2)c2cc(N3CCN(Cc4cn(-c5ccc(F)cc5Cl)nn4)CC3)c(F)cc2c1=O	66.6 (≈ 50 µg/mL)	16.6 (≈ 12.5 µg/mL)	29.8	–	33.3 (≈ 25 µg/mL)	16.6 (≈ 12.5 µg/mL)	16.6 (≈ 12.5 µg/mL)	4.16 (≈ 3.12 µg/mL)	33.3 (≈ 25 µg/mL)	2.08 (≈ 1.56 µg/mL)	16.6 (≈ 12.5 µg/mL)	33.3 (≈ 25 µg/mL)
O=C(O)c1cn(C2CC2)c2cc(N3CCNCC3)c(F)cc2c1=O [CIPROFLOXACIN]	–	–	5.23	–	9.43 (≈ 3.12 µg/mL)	–	–	9.43 (≈ 3.12 µg/mL)	–	–	–	–
